Key:
[1] = biological target: T1, Cytosol Progesterone Receptor of the Estrogen-primed Immature Rabbit Uterus (Oryctolagus cuniculus, UniProt P06186); experiment: Relative binding affinity for progesterone receptor (competition with 3H-progesterone); design: species or system rabbit (New Zealand White)
T1 construct: cytosol progesterone receptor of the estrogen-primed immature rabbit uterus; tissue Dutchland Laboratories, Inc., Denver, Pa (animals); host or cells: uterus cytosol of estradiol-treated immature female New Zealand White rabbits
T1 sequence (P06186 1-930): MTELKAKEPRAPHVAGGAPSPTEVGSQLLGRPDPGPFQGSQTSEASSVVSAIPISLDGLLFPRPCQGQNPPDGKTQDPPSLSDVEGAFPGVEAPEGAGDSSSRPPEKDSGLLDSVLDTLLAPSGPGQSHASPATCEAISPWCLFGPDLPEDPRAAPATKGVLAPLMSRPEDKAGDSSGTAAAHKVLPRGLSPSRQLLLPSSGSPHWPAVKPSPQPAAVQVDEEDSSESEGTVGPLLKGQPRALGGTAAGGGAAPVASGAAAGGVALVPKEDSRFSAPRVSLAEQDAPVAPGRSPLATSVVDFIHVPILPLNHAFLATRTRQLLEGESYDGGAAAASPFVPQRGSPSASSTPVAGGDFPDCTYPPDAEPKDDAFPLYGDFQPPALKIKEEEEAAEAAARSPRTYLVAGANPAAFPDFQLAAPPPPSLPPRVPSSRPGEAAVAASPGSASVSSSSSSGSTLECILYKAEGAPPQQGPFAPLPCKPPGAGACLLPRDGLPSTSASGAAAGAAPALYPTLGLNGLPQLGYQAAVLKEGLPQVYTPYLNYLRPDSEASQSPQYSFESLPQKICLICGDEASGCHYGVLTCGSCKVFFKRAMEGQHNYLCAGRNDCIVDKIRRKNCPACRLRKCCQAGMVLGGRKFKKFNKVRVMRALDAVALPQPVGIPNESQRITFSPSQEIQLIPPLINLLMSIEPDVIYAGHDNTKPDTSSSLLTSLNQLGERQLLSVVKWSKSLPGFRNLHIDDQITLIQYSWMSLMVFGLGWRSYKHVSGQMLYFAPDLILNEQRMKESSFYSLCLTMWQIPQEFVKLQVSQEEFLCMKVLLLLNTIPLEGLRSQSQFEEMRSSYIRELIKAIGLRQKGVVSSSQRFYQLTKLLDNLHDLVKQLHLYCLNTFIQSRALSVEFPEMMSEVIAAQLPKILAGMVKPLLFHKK
Method: RBA values recorded at 0° C. after short incubation times (e.g., 2 hr) mainly reflect differences in the association rate constants of the competing ligands, whereas those measured after long incubation times (e.g., 16 to 24 hr) and/or higher temperatures predominantly are influenced by differences in the dissociation rate constants of the competing ligands. RBA's determined after short incubation times primarily reflect the association of the competitor compared to the natural hormone. Conversely, RBA's measured after long incubation times reflect the dissociation rate of the competitor compared to the natural hormone.
The assay components are combined, allowed to equilibrate, and unbound radioactivity removed by charcoal adsorption.
Animal species. Immature female New Zealand White rabbits weighing 0.8 to 1.0 kg (Dutchland Laboratories, Inc., Denver, Pa).
Pretreatment. Subcutaneous treatment with 15 μg 17β-estradiol/0.6 ml sesame oil each morning (0830 to 0930 hr) for three days. Animals sacrificed 24 hr after final injection.
Tissue. Uterus; each uterus weighed about 1.0 g and two or three uteri were pooled for each assay.
Buffer. (A) 0.01M TES, pH 7.4, 1 mM EDTA, 0.012M thioglycerol and 30% glycerol for cytosol preparation and ^3 H-steroid, unlabeled hormone and compound solutions. (B) 0.01M TES, pH 7.4, 1 mM EDTA and 0.012M thioglycerol for charcoal solution.
Homogenization. Five or six 5-second bursts with 30 second cooling periods between bursts using Brinkman Polytron Pt. 10 at 3.5 rheostat setting.
Temperature. 0°-4° C. for all steps.
Centrifugation. 45,000 rpm for 1 hr, 50 Ti rotor, Beckman L8-80 ultracentrifuge.
Incubation. 16-18 hr at 4°-6° C.
Concentations. 1×10^-10 M to 1×10^-5 M (7 concentrations).
Method. Charcoal adsorption method used to remove unbound radioactivity. Five-tenths ml of dextran-coated charcoal (0.5% Norit A and 0.05% dextran T-70) added to all tubes except total radioactivity tubes (0.5 ml buffer [B] added), tubes vortexed 3-5 sec, allowed to sit for 10 minutes and centrifuged 10 minutes at 2000 rpm in Beckman TJ-6 centrifuge at 0°-4° C.
Data Interpretation. […] The relative binding affinity (RBA) of each compound was calculated by using the following equation. [formula] where

[2] = test system: uterine endometrium of estrone-primed immature rabbits; experiment: Clauberg assay (progestational activity, McPhail); format: in vivo, rabbit (New Zealand White); details: for McPhail Index (0-4) (X ± S.D.): 0 none, 4 maximal
[3] = Assay 2, 16-18 hour incubation, progesterone = 100, 5α-dihydro-17α-ethynyl: lot 1
[4] = Assay 3, 16-18 hour incubation, progesterone = 100, 5α-dihydro-17α-ethynyl: lot 1
[5] = Assay 4, 16-18 hour incubation, progesterone = 100
[6] = Assay 5, 16-18 hour incubation, progesterone = 100

C#C[C@]1(C(C)=O)CC[C@H]2[C@@H]3CC[C@H]4CC(=O)CC[C@]4(C)[C@H]3CC[C@@]21C [5α-Dihydro-17α-ethynylprogesterone, 17α-Ethynyl-5α-pregnane-3,20-dione]
RBA, mean of assays (X±S.D.) ([1]; 16 to 18 hour incubation at 0° C., spurious value 11 excluded): 154±23 | RBA ([1]; Assay 1, 16-18 hour incubation, progesterone = 100, 5α-dihydro-17α-ethynyl: lot 1): 11% | RBA [1, 3]: 186% | RBA [1, 4]: 144% | RBA ([1]; Assay 3, lot 2, 16-18 hour incubation, progesterone = 100): 133% | RBA ([1]; two-hour incubation at 0° C.): 211 | Uterine Weight (X ± S.D.) ([2]; oral, 100 μg/rabbit daily): 1.00 g | McPhail Index (0-4) (X ± S.D.) ([2]; oral, 100 μg/rabbit daily): 0 | Uterine Weight (X ± S.D.) ([2]; oral, 200 μg/rabbit daily): 1.30 ± 0.22 g | McPhail Index (0-4) (X ± S.D.) ([2]; oral, 200 μg/rabbit daily): 0.04 ± 0.06 | Uterine Weight (X ± S.D.) ([2]; oral, 400 μg/rabbit daily): 1.10 ± 0.08 g | McPhail Index (0-4) (X ± S.D.) ([2]; oral, 400 μg/rabbit daily): 0.04 ± 0.06 | progestational response, in words ([2]; sc 5, 10, 20, 100, 200, 400 and oral 100, 200, 400 μg/rabbit/day): inactive at all doses examined | Uterine Weight (X ± S.D.) ([2]; sc, 5 μg/rabbit daily): 0.90 ± 0.29 g | McPhail Index (0-4) (X ± S.D.) ([2]; sc, 5 μg/rabbit daily): 0.08 ± 0.12 | Uterine Weight (X ± S.D.) ([2]; sc, 10 μg/rabbit daily): 1.33 ± 0.09 g | McPhail Index (0-4) (X ± S.D.) ([2]; sc, 10 μg/rabbit daily): 0.29 ± 0.24 | Uterine Weight (X ± S.D.) ([2]; sc, 20 μg/rabbit daily): 1.03 ± 0.17 g | McPhail Index (0-4) (X ± S.D.) ([2]; sc, 20 μg/rabbit daily): 0.04 ± 0.06 | Uterine Weight (X ± S.D.) ([2]; sc, 100 μg/rabbit daily): 1.18 ± 0.25 g | McPhail Index (0-4) (X ± S.D.) ([2]; sc, 100 μg/rabbit daily): 0.13 ± 0.13 | Uterine Weight (X ± S.D.) ([2]; sc, 200 μg/rabbit daily): 1.15 ± 0.07 g | McPhail Index (0-4) (X ± S.D.) ([2]; sc, 200 μg/rabbit daily): 0.58 ± 0.16 | Uterine Weight (X ± S.D.) ([2]; sc, 400 μg/rabbit daily): 1.24 ± 0.09 g | McPhail Index (0-4) (X ± S.D.) ([2]; sc, 400 μg/rabbit daily): 0.33 ± 0.06

C=C[C@]1(C(C)=O)CC[C@H]2[C@@H]3CC[C@H]4CC(=O)CC[C@]4(C)[C@H]3CC[C@@]21C [5α-Dihydro-17α-vinylprogesterone]
RBA [1, 3]: 47% | RBA [1, 4]: 51%

C#C[C@@]1(C(C)=O)CC[C@H]2[C@@H]3C[C@H](C)C4=CC(=O)CC[C@]4(C)[C@H]3CC[C@@]21C [6α-Methyl-17α-acetylpregn-4-ene-20-yn-3-one]
RBA [1, 5]: 5% | RBA [1, 6]: 6%

C#C[C@]1(C(C)=O)CC[C@H]2[C@@H]3C[C@H](C)C4=CC(=O)CC[C@]4(C)[C@H]3CC[C@@]21C [6α-Methyl-17α-ethynylprogesterone, 17α-Ethynyl-6α-methylprogesterone]
RBA [1, 5]: 63% | RBA [1, 6]: 67% | RBA ([1]; Assay 6, 16-18 hour incubation, progesterone = 100): 91% | potency relative to 6α-methyl-17-acetoxyprogesterone (Provera), in words ([2]; both given orally): at least as twice as potent | progestational potency relative to subcutaneous progesterone, in words ([2]; compound given orally, progesterone sc): four times more potent than progesterone administered subcutaneously | Uterine Weight (X ± S.D.) ([2]; oral, 10 μg/rabbit daily): 1.28 ± 0.37 g | McPhail Index (0-4) (X ± S.D.) ([2]; oral, 10 μg/rabbit daily): 0.67 ± 0.42 | Uterine Weight (X ± S.D.) ([2]; oral, 25 μg/rabbit daily): 2.43 ± 0.41 g | McPhail Index (0-4) (X ± S.D.) ([2]; oral, 25 μg/rabbit daily): 2.67 ± 1.00 | Uterine Weight (X ± S.D.) ([2]; oral, 50 μg/rabbit daily): 3.21 ± 0.79 g | McPhail Index (0-4) (X ± S.D.) ([2]; oral, 50 μg/rabbit daily): 3.92 ± 0.12 | Uterine Weight (X ± S.D.) ([2]; oral, 100 μg/rabbit daily): 3.28 ± 0.35 g | McPhail Index (0-4) (X ± S.D.) ([2]; oral, 100 μg/rabbit daily): 4.00 ± 0.00 | Uterine Weight (X ± S.D.) ([2]; sc, 2.5 μg/rabbit daily): 1.31 ± 0.20 g | McPhail Index (0-4) (X ± S.D.) ([2]; sc, 2.5 μg/rabbit daily): 0.21 ± 0.06 | Uterine Weight (X ± S.D.) ([2]; sc, 5 μg/rabbit daily): 1.84 ± 0.48 g | McPhail Index (0-4) (X ± S.D.) ([2]; sc, 5 μg/rabbit daily): 1.29 ± 1.40 | Uterine Weight (X ± S.D.) ([2]; sc, 10 μg/rabbit daily): 3.68 ± 0.31 g | McPhail Index (0-4) (X ± S.D.) ([2]; sc, 10 μg/rabbit daily): 3.92 ± 0.12 | Uterine Weight (X ± S.D.) ([2]; sc, 20 μg/rabbit daily): 3.69 ± 0.62 g | McPhail Index (0-4) (X ± S.D.) ([2]; sc, 20 μg/rabbit daily): 4.00 ± 0.00

Reference: US4512986A, “Progrestationally active steroids” (priority 1983, dated 1985)
